Assay results from patent US5840721A, “Imidazole derivatives as MDR modulators” (Ontogen Corporation, priority 1997, dated 1998).

These compounds were tested on CEM/VLB1000 cell line (assay: Cytotoxicity potentiation: enhancement of vinblastine cytotoxicity in MDR cell line (alamar blue)). Details: Homo sapiens, midpoint of minimum and maximum cytotoxicity induced by 3-5 μg/mL vinblastine and compound, 48 hours incubation, alamar blue 24 hours, read-out: Cytotocicity Potentiation (EC50).
Assay type: cell-based, human
Method: Multidrug-resistant cell lines are easily obtainable for in vitro determination of drug sensitization by compounds of the present invention. In vitro potentiation of antineoplastic cytotoxicity by the imidazole derivatives of the present invention was measured in both CEM/VLB1000 and SK/VLB1000 cell lines. The multidrug resistant cell lines were obtained from Dr. Victor Ling, Ontario Cancer Institute, Toronto, Canada. The CEM/VLB 1000 cell line was maintained as a suspension in minimum essential medium supplemented with 10% fetal bovine serum in a humidied atmosphere of 95% air and 5% CO2 while the SK/VLB 1000 cell line was maintained as adherent cells using the identical medium conditions as the CEM cells. The CEM/VLB 1000 cells were seeded at a density of 5×10^4 cells/well in a 96 well microtiter plate while the SK/VLB 1000 cell line was seeded at a density of 2,500 cells/well after trypsinization.

SMILES | EC50
CCOC/C=C/c1ccc(-c2nc(-c3ccc(N(C)C)cc3)c(-c3ccc(N(C)C)cc3)[nH]2)cc1 [Example 75, 2-[4-(3-ethoxy-trans-1-propen-1-yl)phenyl]-4,5-bis (4-N,N-dimethylaminophenyl) imidazole] | 98 nM
CN(C)c1ccc(-c2nc(-c3ccc(/C=C/COCc4ccccc4)cc3)[nH]c2-c2ccc(N(C)C)cc2)cc1 [Example 77, 2-[4-(3-benzyloxy-trans-1-propen-1-yl)phenyl]-4,5-bis (4-N,N-dimethylaminophenyl) imidazole] | 340 nM
CN(C)c1ccc(-c2nc(-c3ccc(/C=C/S(C)(=O)=O)cc3)[nH]c2-c2ccc(N(C)C)cc2)cc1 [Example 96, 2-[4-trans-(2-methanesulfonyl-ethenyl)-phenyl]-4,5-bis (4-N,N-dimethylaminophenyl) imidazole] | 730 nM
COC(=O)/C=C/c1ccc(-c2nc(-c3ccc(N(C)C)cc3)c(-c3ccc(N4CCOCC4)cc3)[nH]2)cc1 [Example 72, 2-(trans-2-methoxycarbonyl-ethenylphenyl)-4-(4-N-dimethylaminophenyl)-5-(4-N-morpholinophenyl) imidazole] | 320 nM
CCOC/C=C/c1ccc(-c2nc(-c3ccc(N(CC)CC)cc3)c[nH]2)cc1 [Example 108, 2-[4-(3-ethoxy-trans-1-propen-1-yl)phenyl]-4-(4-N,N-diethylphenyl) imidazole] | 300 nM
CN(C)c1ccc(-c2nc(-c3ccc(/C=C/COC(=O)C(C)(C)C)cc3)[nH]c2-c2ccc(N(C)C)cc2)cc1 [Example 115, 2-[4-(3-pivalate-trans-1-propen-1-yl)phenyl]-4,5-bis (4-N,N-dimethylaminophenyl) imidazole] | 480 nM
CCOC/C=C/c1ccc(-c2nc(-c3ccc(N4CCOCC4)cc3)c(-c3ccc(N4CCOCC4)cc3)[nH]2)cc1 [Example 92, 2-[4-(3-ethoxy-trans-1-propen-1-yl)phenyl]-4,5-bis (4-N-morpholinophenyl) imidazole] | 220 nM
CN(C)c1ccc(-c2nc(-c3ccc(N4CCOCC4)cc3)[nH]c2-c2ccc(N(C)C)cc2)cc1 [Example 97, 2-(4-N-morpholinophenyl)-4,5-bis (4-N,N-dimnethylaminophenyl) imidazole] | 190 nM
CCOC/C=C/c1ccc(-c2nc(-c3ccc(OC(C)C)cc3)c(-c3ccc(OC(C)C)cc3)[nH]2)cc1 [Example 104, 2-[4-(3-ethoxy-trans-1-propen-1-yl)phenyl]-4,5-bis (4diisopropyloxyphenyl) imidazole] | 250 nM
CCOC/C=C/c1ccc(-c2nc(-c3ccc(N4CCCC4)cc3)c(-c3ccc(N4CCCC4)cc3)[nH]2)cc1 [Example 89, 2-[4-(3-ethoxy-trans-1-propen-1-yl)phenyl]-4,5-bis (4-pyrrolidinophenyl) imidazole] | 240 nM
CCOC/C=C/c1ccc(-c2nc(-c3ccc(NC)cc3)c(-c3ccc(N4CCCC4)cc3)[nH]2)cc1 [Example 91, 2-[4-(3-ethoxy-trans-1-propen-1-yl)phenyl]-4-(4-N-methylaminophenyl)-5(4-pyrrolidinophenyl) imidazole] | 110 nM
CCCN(CCC)c1ccc(-c2c[nH]c(-c3ccc(/C=C/COCC)cc3)n2)cc1 [Example 122, 2-[4-(3-ethoxy-trans-1-propen-1-yl)phenyl]-4-(4-N,N-dipropylphenyl) imidazole] | 280 nM
CNc1ccc(-c2nc(-c3ccc(/C=C/C(=O)OC)cc3)[nH]c2-c2ccc(N3CCOCC3)cc2)cc1 [Example 73, 2-(trans-2-methoxycarbonyl-ethenylphenyl)-4-(4-N-methylaminophenyl)5-(4-N-morpholinophenyl) imidazole] | 340 nM
CNc1ccc(-c2[nH]c(-c3ccc(/C=C/C(=O)OC)cc3)nc2-c2ccc(-n3ccnc3)cc2)cc1 [Example 70, 2-(trans-2-methoxycarbonyl-ethenylphenyl)-4-[4-(1-imidazolyl)phenyl]-5(4-N-methylaminophenyl) imidazole] | 500 nM
CCOC/C=C/c1ccc(-c2nc(-c3ccc(NCC(C)C)cc3)c[nH]2)cc1 [Example 124, 2-[4-(3-ethoxy-trans-1-propen-1-yl)phenyl]-4-(4-N-isobutylphenyl) imidazole] | 250 nM
CN(C)c1ccc(-c2nc(-c3ccc(/C=C/CO)cc3)n(C)c2-c2ccc(N(C)C)cc2)cc1 [Example 114, 1-methyl-2-[4-(3-hydroxy-trans-1-propen-1-yl)phenyl]-4,5-bis (4-N,N-dimethylaminophenyl) imidazole] | 630 nM
CCOC/C=C/c1ccc(-c2nc(-c3ccc(OC)cc3)c[nH]2)cc1 [Example 109, 2-[4-(3-ethoxy-trans-1-propen-1-yl)phenyl]-4-(4-methoxyphenyl) imidazole] | 1850 nM
CCOC/C=C/c1ccc(-c2nc(-c3ccc(NC(C)C)cc3)c(-c3ccc(NC)cc3)[nH]2)cc1 [Example 95, 2-[4-(3-ethoxy-trans-1-propen-1-yl)phenyl]-4-(4-N-methylaminophenyl)-5-(4-N-isopropylaminophenyl) imidazole] | 50 nM
CCNc1ccc(-c2[nH]c(-c3ccc(/C=C/COCC)cc3)nc2-c2ccc(NC(C)C)cc2)cc1 [Example 120, 2-[4-(3-ethoxy-trans-1-propen-1-yl)phenyl]-4-(4-N-ethylaminophenyl)-5(4-N-isopropylaminophenyl) imidazole] | 53 nM
C=CCN(CC=C)c1ccc(-c2nc(-c3ccc(/C=C/C(=O)OC)cc3)[nH]c2-c2ccc(F)cc2)cc1 [Example 66, 2-(trans-2-methoxycarbonyl-ethenylphenyl)-4-(4-N,N-diallylaminophenyl)5-(4-fluoro-phenyl) imidazole] | 850 nM
CNc1ccc(-c2[nH]c(-c3ccc(/C=C/c4nc5ccccc5s4)cc3)nc2-c2ccc(N(C)C)cc2)cc1 [Example 63, 2-[trans-2-(2-benzthiazolyl)ethenylphenyl]-4-(4-N-dimethylaminophenyl)-5-(4-N-methylaminophenyl) imidazole] | 320 nM
CCOC/C=C/c1ccc(-c2nc(-c3ccc(OC)cc3)c(-c3ccc(OC)cc3)[nH]2)cc1 [Example 102, 2-[4-(3-ethoxy-trans-1-propen-1-yl)phenyl]-4,5-bis (4-dimethoxyphenyl) imidazole] | 350 nM
CCCCOC/C=C/c1ccc(-c2nc(-c3ccc(N(C)C)cc3)c(-c3ccc(N(C)C)cc3)[nH]2)cc1 [Example 85, 2-[4-(3-butoxy-trans-1-propen-1-yl)phenyl]-4,5-bis (4-N,N-dimethylaminophenyl) imidazole] | 110 nM
CNc1ccc(-c2nc(-c3ccc(/C=C/C(=O)OC)cc3)[nH]c2-c2ccc(N3CCCCC3)cc2)cc1 [Example 68, 2-(trans-2-methoxycarbonyl-ethenylphenyl) -4-(4-N-methylaminophenyl)5-(4-piperidinophenyl) imidazole] | 390 nM
CNc1ccc(-c2nc(-c3ccc(/C=C/c4nc5ccccc5o4)cc3)[nH]c2-c2ccc(N3CCCC3)cc2)cc1 [Example 60, 2-[trans-2-(2-benzoxazolyl)ethenylphenyl]-4-(4-N-methylaminophenyl)-5-(4-pyrrolidinophenyl) imidazole] | 450 nM
CCOC/C=C/c1ccc(-c2nc(-c3ccc(N(C)C)cc3)c(-c3ccc(N4CCOCC4)cc3)[nH]2)cc1 [Example 93, 2-[4-(3-ethoxy-trans-1-propen-1-yl)phenyl]-4-(4-N-dimethylaminophenyl)-5-(4-N-morpholinophenyl) imidazole] | 150 nM
COC/C=C/c1ccc(-c2nc(-c3ccc(N4CCCC4)cc3)c(-c3ccc(N4CCCC4)cc3)[nH]2)cc1 [Example 88, 2-[4-(3-methoxy-trans-1-propen-1-yl)phenyl]-4,5-bis (4-pyrrolidinophenyl) imidazole] | 260 nM
CCOC/C=C/c1ccc(-c2nc(-c3ccc(N(CC)CC)cc3)c(-c3ccc(NC)cc3)[nH]2)cc1 [Example 87, 2-[4-(3-ethoxy-trans-1-propen-1-yl)phenyl]-4-(4-N,N-diethylaminophenyl)5-(4-N-methylaminophenyl) imidazole] | 60 nM
CN(C)c1ccc(-c2nc(-c3ccc(/C=C/C#N)cc3)[nH]c2-c2ccc(N(C)C)cc2)cc1 [Example 64, 2-[trans-2-(2-cyano)ethenylphenyl]-4,5-(4-N,N-dimethylaminophenyl) imidazole] | 550 nM

Same assay, conditions: midpoint of minimum and maximum cytotoxicity induced by 3-5 μg/mL vinblastine and compound, 48 hours incubation, alamar blue 24 hours, read-out: Cytotocicity Potentiation (EC50)

SMILES | EC50
CNc1ccc(-c2[nH]c(-c3ccc(/C=C/COc4ccccc4)cc3)nc2-c2ccc(N(C)C)cc2)cc1 [Example 78, 2-[4-(3-phenoxy-trans-1-propen-1-yl)phenyl]-4-(4-N-dimethylaminophenyl)-5-(4-N-methylaminopheny) imidazole] | 450 nM

Each compound was assayed on CEM/VLB1000 cell line (assay: [3H]VLB accumulation in CEM/VLB1000 cells). Details: Homo sapiens, midpoint of minimum and maximum increase in accumulation of 3H-vinblastine (275 nM), 3 hours at 37° C.
Assay type: cell-based
Method: ^3 H-vinblastine accumulation was also measured in the CEM/VLB1000 cell line. Corning Easy-Wash 96 well plates were pretreated with PBS and 1% BSA for 60 minutes and then removed. CEM/VLB1000 cells were seeded at 2×10^5, 40 μL volume. Plates were incubated at 37° C. for 30-60 minutes prior to use. The reference reversing agent, verapamil, or the compound of the present invention was added to the well followed by addition of media containing ^3 H-vinblastine (final concentration=275nM). Plates were allowed to incubate for 3 hours at 37° C. Cells were harvested onto pretreated Wallace filtermats A (pretreated with 0.1% polyethyleneimine) using a TomTek harvester-96. After filtering, the filtermats were allowed to dry completely. Meltix B scintillant was then added to the filtermats. The filters were then placed in a 90° C. oven for approximately 3-5 minutes and then removed. Scintillant was allowed to solidify on the filtermats. Filtermats were then placed in sample bags and read on a Wallace BetaPlate scintillation counter. The effects of compounds of the present invention in the cytotoxicity potentiation assays and vinblastine (VLB) accumulation assay are given in the Table below:
^2 Values presented are the midpoint (EC50 ) of the minimum and
maximum increase in accumulation of ^3 Hvinblastine caused by the
specfic compound of the present invention.

SMILES | EC50
CCOC/C=C/c1ccc(-c2nc(-c3ccc(N(C)C)cc3)c(-c3ccc(N(C)C)cc3)[nH]2)cc1 [Example 75, 2-[4-(3-ethoxy-trans-1-propen-1-yl)phenyl]-4,5-bis (4-N,N-dimethylaminophenyl) imidazole] | 1200 nM
CN(C)c1ccc(-c2nc(-c3ccc(/C=C/COCc4ccccc4)cc3)[nH]c2-c2ccc(N(C)C)cc2)cc1 [Example 77, 2-[4-(3-benzyloxy-trans-1-propen-1-yl)phenyl]-4,5-bis (4-N,N-dimethylaminophenyl) imidazole] | 1200 nM
